What was measured:
[1] = biological target: T1, Thromboxane A2 receptor (Homo sapiens, UniProt P21731); assay: In vitro thromboxane receptor antagonism was determined using a human platelet binding assay
T1 sequence (P21731 whole entry): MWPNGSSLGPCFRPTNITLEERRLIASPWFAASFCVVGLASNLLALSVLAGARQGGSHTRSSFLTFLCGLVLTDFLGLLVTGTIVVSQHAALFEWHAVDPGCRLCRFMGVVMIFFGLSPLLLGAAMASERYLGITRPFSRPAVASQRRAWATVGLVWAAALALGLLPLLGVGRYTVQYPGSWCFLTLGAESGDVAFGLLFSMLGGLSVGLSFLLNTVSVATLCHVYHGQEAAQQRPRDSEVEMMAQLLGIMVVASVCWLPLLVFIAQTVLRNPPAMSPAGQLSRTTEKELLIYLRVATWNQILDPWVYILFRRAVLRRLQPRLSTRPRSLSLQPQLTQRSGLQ

[2] = biological target: T2, Thromboxane-A synthase (Homo sapiens, UniProt P24557); assay: In vitro inhibition of thromboxane synthase (TSI) activity was determined by using human serum levels of TXB2; format: cell-free
T2 sequence (P24557 whole entry): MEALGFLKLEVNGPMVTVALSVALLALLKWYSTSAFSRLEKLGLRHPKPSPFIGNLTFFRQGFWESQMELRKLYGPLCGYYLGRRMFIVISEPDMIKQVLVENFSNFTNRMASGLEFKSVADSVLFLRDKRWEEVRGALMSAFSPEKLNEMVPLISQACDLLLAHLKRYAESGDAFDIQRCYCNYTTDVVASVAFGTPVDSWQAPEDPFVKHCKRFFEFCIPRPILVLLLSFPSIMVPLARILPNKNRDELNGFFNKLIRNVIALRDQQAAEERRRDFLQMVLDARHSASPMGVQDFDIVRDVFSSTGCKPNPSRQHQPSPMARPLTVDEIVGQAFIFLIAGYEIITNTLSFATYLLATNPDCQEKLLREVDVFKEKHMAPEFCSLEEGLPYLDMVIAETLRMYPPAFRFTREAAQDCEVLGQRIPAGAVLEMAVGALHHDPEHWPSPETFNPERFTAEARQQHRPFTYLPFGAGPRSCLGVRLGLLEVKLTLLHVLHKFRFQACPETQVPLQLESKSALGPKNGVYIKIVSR

[3] = Partition coefficient (logP); format: physicochemical; settings: octanol/water

Row | SMILES | Kd [1] [nM] | IC50 [2] [nM] | logP [3]
1 | CCCCCNC(=O)[C@@H]1COC(c2ccc(/C(=C\CCCCC(=O)O)c3cccnc3)cc2)=N1 | 244 |  | 
2 | O=C(O)CCCC/C=C(\c1cccnc1)c1ccccc1-c1nc(C(=O)NCCCCC2CCCCC2)co1 | 1500 |  | 
3 | O=C(O)CCCC/C=C(/c1ccc(-c2nc(C(=O)NCCCCC3CCCCC3)co2)cc1)c1cccnc1 | 147 |  | 
4 | O=C(O)CCCC/C=C(\c1cccnc1)c1cccc(C2=N[C@@H](C(=O)NCCCCC3CCCCC3)CO2)c1 | 830 |  | 
5 | O=C(O)CCCC/C=C(/c1cccnc1)c1ccccc1-c1nc(C(=O)NCCCCC2CCCCC2)co1 | 540 |  | 
6 | O=C(O)CCCC/C=C(/c1ccc(C2=N[C@@H](C(=O)NCCCCC3CCCCC3)CO2)cc1)c1cccnc1 |  | > 10000 | 
7 | O=C(O)CCCC/C=C(\c1ccc(-c2nc(C(=O)NCCCCC3CCCCC3)co2)cc1)c1cccnc1 |  | 550 | 7.35
8 | CCCCCNC(=O)c1coc(-c2ccc(/C(=C\CCCCC(=O)O)c3cccnc3)cc2)n1 | 153 | 31.2 | 5.23
9 | O=C(O)CC/C=C(\c1ccc(-c2nc(C(=O)NCCCCC3CCCCC3)co2)cc1)c1cccnc1 | 93.3 | 3170 | 
10 | O=C(O)CCCC/C=C(/c1cccnc1)c1cccc(-c2nc(C(=O)NCCCCC3CCCCC3)co2)c1 | 12.3 | 19 | 
11 | O=C(O)CCCC/C=C(\c1cccnc1)c1cccc(-c2nc(C(=O)NCCCCC3CCCCC3)co2)c1 | 630 | 23 | 
12 | O=C(O)CCCC/C=C(\c1ccc(C2=N[C@@H](C(=O)NCCCCC3CCCCC3)CO2)cc1)c1cccnc1 |  | 82.1 | 
13 | O=C(O)CCCC/C=C(\c1ccccc1)c1cccnc1 [(E)-ISBOGREL] | 8200 |  | 

From ChEMBL document CHEMBL1130899, “Development of dual-acting agents for thromboxane receptor antagonism and thromboxane synthase inhibition. 2. Design, synthesis, and evaluation of a novel series of phenyl oxazole derivatives” (Bioorg Med Chem Lett, 1998)
